From article PMC12382740, “In Vitro and In Vivo Characterization of Novel Cathelicidin-Based Peptides with Antimicrobial Activity Against Pseudomonas aeruginosa” (Antibiotics, 2025)
≈ marks a conversion by molar mass, not a printed value. Read-outs that look alike come from different tables or passages of the source. Square brackets hold non-standard residues; d marks the D form. Ends that are not written are not given here. Peptide text beside a SMILES is read from it. * marks the point of attachment. Gu = N-terminal guanidylation, N=C(N)*

Key:
human erythrocytes = assay: Hemolysis assay; assay type: cell-based; settings: red cells of human, 4 h
Protocol: Commercially available human blood (IWB1K2E10ML, Innovative Research Inc., Novi, MI, USA) was used to produce a 50% haematocrit solution by mixing at 1:1 with PBS 1× (P5493, 1 L, Sigma, St. Louis, MO, USA). Three consecutive PBS 1× washes plus centrifugation at 2600 rpm for 10 min steps were performed. Finally, a 2% erythrocyte solution was prepared in PBS 1× and chilled on ice until used. Polypropylene plates were filled with 50 µL PBS 1× per well for the samples and 50 µL 2% Triton X-100 (TX-100, 9002-93-1, 100 mL, Sigma, St. Louis, MO, USA) for the hemolysis controls. A solution at 4× final concentration of the assay of each peptide was prepared in PBS and 50 µL were added to the first column of each plate, followed by serial dilutions in the microplate. Then, 50 µL of the 2% erythrocyte solution was added to each plate. […] controls consisted in a 1:1 mix of PBS 1× and erythrocytes at 2%. Plates were incubated at 37 °C for 4 h and then centrifuged at 1500 rpm for 5 min. Eighty µL were extracted from the supernatant of each well carefully and transferred to a polystyrene flat bottom plate for reading and read at 450 nm in an Epoch microplate spectrophotometer (Epoch™, BioTek, Winooski, VT, USA).
The therapeutic index is a widely accepted parameter to represent the specificity of antimicrobial peptides for prokaryotic versus eukaryotic cells. It is calculated by the ratio of HC50 (hemolytic activity) and MIC (antimicrobial activity); thus, larger values of therapeutic index indicate greater specificity for prokaryotic cells.

A549 cells = assay type: cell-based, human; settings: 24 h
Protocol: (§1) Cell viability assays were performed against HeLa and A549 cells. Cells were seeded in Corning 96-well microplates at 2 × 10^3 cells/well and 5 × 10^3 cells/well and incubated for 24 h at 37 °C. Then, cells were treated with peptides dissolved in Dulbecco’s Modified Eagle’s Medium for 24 h; peptide concentration range 0.1–100 µM. The peptide solution was then removed, and fresh medium was added to the cells. Finally, 50 µL of activated-XTT solution was added and incubated for 4 h at 37 °C. A PowerWave X reader (BioTek, Winooski, VT, USA) was used to measure absorbance at 450 nm. Cell viability was calculated through the ratio of the absorbance of peptide-treated cells over the absorbance of untreated cells. Triplicates were run for each experiment.

HeLa cells [1] = assay type: cell-based, human; settings: 24 h
Protocol: as §1

[2] = system: P. aeruginosa Strain 121007; assay type: cell-based, Pseudomonas aeruginosa; settings: Strain 121007
Protocol: (§2) The antimicrobial activity of the peptides was tested against a collection of P. aeruginosa, selected by their resistance or susceptibility to colistin and/or classified as MDR strains. The origin of the strains was either clinical, relevant to the current clinical situation, or commercial strains belonging to the American Type Culture Collection (ATCC, Manassas, VA, USA), which complemented the collection for comparison and control. For the initial activity screening of the 17 peptides, we tested them against P. aeruginosa ATCC strains 1211007 and 1211101. Both strains are multidrug-resistant; however, the key difference is that strain 1211007 is susceptible to colistin, whereas strain 1211101 is resistant to colistin.
(§3) Minimum Inhibitory Concentration (MIC) of the antimicrobial agents against bacterial strains was obtained through broth microdilution assays following a protocol based on the Clinical & Laboratory Standards Institute’s guidelines. Modifications regarding microplate material and broth were included when testing the peptides’ activity and are detailed below. Colistin MICs were obtained following recommendations of the joint CLSI-EUCAST Polymyxin Breakpoints Working Group using Cation Adjusted Mueller-Hinton Broth (90922, 500 g Sigma-Aldrich®, St. Louis, MO, USA), and strains Escherichia coli 13846 (mcr-1 positive) and P. aeruginosa ATCC 27853 were used as quality controls in all assays. Bacteria were cultured in Columbia Agar plates (Columbia Agar with 5% Sheep Blood 90 mm Stacker plates, Becton Dickinson, Franklin Lakes, NJ, USA) and incubated overnight at 37 °C. Polypropylene round-bottomed 96-well plates (-96-well Polypropylene Storage Microplates, 267334, Thermo Fischer Scientific, Waltham, MA, USA) were used to prevent peptide binding to plate walls. AST broth (BD Phoenix™ AST broth, 8 mL, 246003, Becton Dickinson, Franklin Lakes, NJ, USA) was used when testing the peptides’ activity. […] Three biological and technical replicates were performed per strain.

[3] = system: P. aeruginosa strain panel; assay type: cell-based, Pseudomonas aeruginosa; settings: strain panel
Protocol: as §2, §3

[4] = In vivo toxicity study, topical; design: species or system BALB/C mice; settings: for mice final weight (median ± SD): after 7 days of observation after the treatment; for dermal responses and body weight loss / indicative signs of acute toxicity: healthy female BALB/C mice; for dermal responses and body weight loss: during the application; for indicative signs of acute toxicity: topical, efficacy dosage, 7 days observation
Protocol: Immunocompetent female BALB/C mice weighing 20 g (7–9 weeks old) were used (Charles River laboratories, St-Germain-Nuelles, France). Animals were murine pathogen-free and were assessed for genetic authenticity. The study followed the Guide for the Care and Use of Laboratory Animals. The experiments followed the 2010/63/EU directive on the protection of animals used for scientific research. Experiments were approved by the Committee on the Ethics of Animal Experiments of the Virgen del Rocío University Hospital and the Andalusian Ministry of Agricultura, Pesca, Agua y Desarrollo Rural, Junta de Andalucía, Sevilla, Spain (11-09-15-322).
CAP-18 and D-CAP-18 peptides were evaluated in five healthy female BALB/C mice at the dosage and regimen schedule to be used in the efficacy studies. The following indicative signs of acute toxicity were assessed during seven days: reduced water (dehydration)/food intake, isolation, self-mutilation, tremors/spasms, dyspnea, physical activity (increased/reduced), chromo-dacryorrhea, dermal responses, including erythema/oedema/redness/discoloration/necrosis), muscle stiffness, piloerection, teeth grinding, and weight loss.

[5] = system: Colistin-Resistant P. aeruginosa; assay type: cell-based, Pseudomonas aeruginosa; settings: Colistin-Resistant
Protocol: as §2, §3

[6] = system: P. aeruginosa Strain ATCC 121110; assay type: cell-based, Pseudomonas aeruginosa; settings: ATCC 121110
Protocol: as §2, §3

[7] = system: Colistin Susceptible P. aeruginosa; assay type: cell-based, Pseudomonas aeruginosa; settings: Colistin Susceptible
Protocol: as §2, §3

HeLa cells [8] = system: HeLa cells; design: method as in PMID 26114809; settings: read-out: IC50 against HeLa cells; cited from earlier work
erythrocytes = system: erythrocytes; design: method as in PMID 26114809; settings: at 64 mg/L ref 58; cited from earlier work

Molecule	IC50 (human erythrocytes) [µM]	IC50 (A549 cells) [µM]	IC50 (HeLa cells [1]) [µM]	MIC50 [3] [µg/mL]	MIC90 [3] [µg/mL]	mice final weight (median ± SD) [4] [grams]	dermal responses and body weight loss [4]	indicative signs of acute toxicity [4]	IC50 (HeLa cells [8]) [µM]	also measured
CC[C@@H](C)[C@@H](NC(=O)[C@@H](CCCCN)NC(=O)[C@@H](CCCCN)NC(=O)[C@@H](CC(C)C)NC(=O)[C@@H](CCCCN)NC(=O)[C@@H](CCC(=O)O)NC(=O)[C@@H](CCCCN)NC(=O)[C@H](NC(=O)[C@@H](CCCCN)NC(=O)[C@@H](CC(N)=O)NC(=O)[C@@H](CCCNC(=N)N)NC(=O)[C@@H](Cc1ccccc1)NC(=O)[C@@H](CCCCN)NC(=O)[C@@H](CCCNC(=N)N)NC(=O)[C@@H](CC(C)C)NC(=O)[C@@H](CCCNC(=N)N)NC(=O)[C@@H](CCCCN)NC(=O)[C@@H](CCCNC(=N)N)NC(=O)[C@@H](CC(C)C)NC(=O)CN)[C@H](C)CC)C(=O)NCC(=O)N[C@H](CCC(N)=O)C(=O)N[C@H](CCCCN)C(=O)N[C@@H](C(=O)N[C@H](CCC(N)=O)C(=O)NCC(=O)N[C@H](CC(C)C)C(=O)N[C@H](CC(C)C)C(=O)N1CCC[C@@H]1C(=O)N[C@H](CCCCN)C(=O)N[C@H](CC(C)C)C(=O)N[C@H](C)C(=O)N1CCC[C@@H]1C(=O)N[C@H](CCCNC(=N)N)C(=O)N[C@@H](C(=O)N[C@H](CC(=O)O)C(=O)N[C@H](Cc1ccc(O)cc1)C(=O)O)[C@H](C)O)[C@H](C)CC [D-CAP-18, Glrkrlrkfrnkikeklkkigqkiqgllpklaprtdy] (H-G[dL][dR][dK][dR][dL][dR][dK][dF][dR][dN][dK][dI][dK][dE][dK][dL][dK][dK][dI]G[dQ][dK][dI][dQ]G[dL][dL][dP][dK][dL][dA][dP][dR][dT][dD][dY]-OH)	62	2.09	2.11	1 (≈ 0.226 µM)	2 (≈ 0.451 µM)	18.9 ± 0.30	no dermal responses, including erythema/oedema, nor body weight loss were observed	None of the 11 indicative signs of acute toxicity were observed	–	MIC [2]: 2 µg/mL (≈ 0.451 µM)
GLRKRLRKFRNKIKEKLKKIGQKIQGLLPKLAPRTDY [CAP-18]	35.7	0.87	9.12	0.5	4	19.1 ± 0.55	no dermal responses, including erythema/oedema, nor body weight loss were observed	None of the 11 indicative signs of acute toxicity were observed	–	MIC [5]: 4 µg/mL; MIC [6]: < 0.125 µg/mL; MIC [7]: 8 µg/mL
Gu-INLKALAALAKKIL-NH2 (SMILES CC[C@H](C)[C@H](NC(=N)N)C(=O)N[C@@H](CC(N)=O)C(=O)N[C@@H](CC(C)C)C(=O)N[C@@H](CCCCN)C(=O)N[C@@H](C)C(=O)N[C@@H](CC(C)C)C(=O)N[C@@H](C)C(=O)N[C@@H](C)C(=O)N[C@@H](CC(C)C)C(=O)N[C@@H](C)C(=O)N[C@@H](CCCCN)C(=O)N[C@@H](CCCCN)C(=O)N[C@H](C(=O)N[C@@H](CC(C)C)C(N)=O)[C@@H](C)CC) [guanidylated mastoparan analog]	–	–	–	–	–	–	–	–	13	–
H-INLKALAALAKKIL-CH2CH2NH2	–	–	–	–	–	–	–	–	5	–
H-inlkalaalakkil-NH2	–	–	–	–	–	–	–	–	10	–
mastoparan	–	–	–	–	–	–	–	–	32	hemolysis (erythrocytes): 6.6%
